Measured values reported in patent US20260356819A1, “OXOISOINDOLINYL-SUBSTITUTED […] DERIVATIVE AND USE THEREOF” (GLUETACS THERAPEUTICS (SHANGHAI) CO., LTD., priority 2023, published 2026).

How the values were obtained:
Assay type in all cases: cell-based
Conditions in all cases: compounds at 50 nM and 500 nM
[1] = target: T1, IKZF2 (Homo sapiens, UniProt Q96SW2+Q9UKS7); experiment: Western blot degradation of IKZF2 in hPBMCs (24 h)
T1 construct: The supernatant was aspirated as the extracted total cell protein; endogenous in cells; host or cells: human peripheral blood mononuclear cells (hPBMCs)
Summary of the method: (§1)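 In this assay, each compound was incubated with human PBMCs for 24 h at 50 nM and 500 nM. Target levels were measured by Western blot densitometry normalised to an internal control.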

[2] = target: T2, IKZF1 (Homo sapiens, UniProt Q13422+Q96SW2); experiment: Western blot degradation of IKZF1 in hPBMCs (24 h)
T2 construct: The supernatant was aspirated as the extracted total cell protein; endogenous in cells; host or cells: human peripheral blood mononuclear cells (hPBMCs)
Summary of the method: as §1

[3] = target: T3, IKZF3 (Homo sapiens, UniProt Q96SW2+Q9UKT9); experiment: Western blot degradation of IKZF3 in hPBMCs (24 h)
T3 construct: The supernatant was aspirated as the extracted total cell protein; endogenous in cells; host or cells: human peripheral blood mononuclear cells (hPBMCs)
Summary of the method: as §1

[4] = target: T4, WEE1 (Homo sapiens, UniProt P30291+Q96SW2); experiment: Western blot degradation of WEE1 in hPBMCs (24 h)
T4 construct: The supernatant was aspirated as the extracted total cell protein; endogenous in cells; host or cells: human peripheral blood mononuclear cells (hPBMCs)
Summary of the method: as §1

[5] = target: T5, GSPT1 (Homo sapiens, UniProt P15170+Q96SW2); experiment: Western blot degradation of GSPT1 in hPBMCs (24 h)
T5 construct: The supernatant was aspirated as the extracted total cell protein; endogenous in cells; host or cells: human peripheral blood mononuclear cells (hPBMCs)
Summary of the method: as §1

[6] = target: T6, CK1α (Homo sapiens, UniProt P48729+Q96SW2); experiment: Western blot degradation of CK1α in hPBMCs (24 h)
T6 construct: The supernatant was aspirated as the extracted total cell protein; endogenous in cells; host or cells: human peripheral blood mononuclear cells (hPBMCs)
Summary of the method: as §1

T2 sequence (Q13422 whole entry): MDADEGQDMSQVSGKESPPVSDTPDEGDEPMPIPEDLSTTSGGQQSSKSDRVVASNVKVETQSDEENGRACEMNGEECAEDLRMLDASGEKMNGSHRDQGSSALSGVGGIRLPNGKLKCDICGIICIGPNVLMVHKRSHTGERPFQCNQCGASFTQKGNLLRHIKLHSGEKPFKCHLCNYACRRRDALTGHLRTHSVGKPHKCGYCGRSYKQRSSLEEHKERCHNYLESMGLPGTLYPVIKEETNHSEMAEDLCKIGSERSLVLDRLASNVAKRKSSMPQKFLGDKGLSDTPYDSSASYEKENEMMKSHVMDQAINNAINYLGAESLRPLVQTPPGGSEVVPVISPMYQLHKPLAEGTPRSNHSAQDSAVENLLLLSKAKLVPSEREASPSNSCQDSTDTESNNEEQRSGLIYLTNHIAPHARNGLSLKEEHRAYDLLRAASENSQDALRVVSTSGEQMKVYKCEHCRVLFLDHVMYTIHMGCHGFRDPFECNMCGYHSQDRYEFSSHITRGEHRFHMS
T2 sequence (Q96SW2 whole entry): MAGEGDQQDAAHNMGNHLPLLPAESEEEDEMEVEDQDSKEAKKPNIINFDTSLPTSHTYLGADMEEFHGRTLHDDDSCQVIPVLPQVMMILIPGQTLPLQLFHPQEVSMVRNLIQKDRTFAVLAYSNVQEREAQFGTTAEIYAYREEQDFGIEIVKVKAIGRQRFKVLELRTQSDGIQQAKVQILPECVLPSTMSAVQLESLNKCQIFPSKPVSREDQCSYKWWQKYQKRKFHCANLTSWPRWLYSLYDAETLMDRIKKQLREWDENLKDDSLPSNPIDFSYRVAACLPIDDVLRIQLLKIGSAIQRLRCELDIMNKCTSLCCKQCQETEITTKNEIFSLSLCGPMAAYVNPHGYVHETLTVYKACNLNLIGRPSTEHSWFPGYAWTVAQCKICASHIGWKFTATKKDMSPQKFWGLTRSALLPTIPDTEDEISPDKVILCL
T2 sequence (Q16531 whole entry partner): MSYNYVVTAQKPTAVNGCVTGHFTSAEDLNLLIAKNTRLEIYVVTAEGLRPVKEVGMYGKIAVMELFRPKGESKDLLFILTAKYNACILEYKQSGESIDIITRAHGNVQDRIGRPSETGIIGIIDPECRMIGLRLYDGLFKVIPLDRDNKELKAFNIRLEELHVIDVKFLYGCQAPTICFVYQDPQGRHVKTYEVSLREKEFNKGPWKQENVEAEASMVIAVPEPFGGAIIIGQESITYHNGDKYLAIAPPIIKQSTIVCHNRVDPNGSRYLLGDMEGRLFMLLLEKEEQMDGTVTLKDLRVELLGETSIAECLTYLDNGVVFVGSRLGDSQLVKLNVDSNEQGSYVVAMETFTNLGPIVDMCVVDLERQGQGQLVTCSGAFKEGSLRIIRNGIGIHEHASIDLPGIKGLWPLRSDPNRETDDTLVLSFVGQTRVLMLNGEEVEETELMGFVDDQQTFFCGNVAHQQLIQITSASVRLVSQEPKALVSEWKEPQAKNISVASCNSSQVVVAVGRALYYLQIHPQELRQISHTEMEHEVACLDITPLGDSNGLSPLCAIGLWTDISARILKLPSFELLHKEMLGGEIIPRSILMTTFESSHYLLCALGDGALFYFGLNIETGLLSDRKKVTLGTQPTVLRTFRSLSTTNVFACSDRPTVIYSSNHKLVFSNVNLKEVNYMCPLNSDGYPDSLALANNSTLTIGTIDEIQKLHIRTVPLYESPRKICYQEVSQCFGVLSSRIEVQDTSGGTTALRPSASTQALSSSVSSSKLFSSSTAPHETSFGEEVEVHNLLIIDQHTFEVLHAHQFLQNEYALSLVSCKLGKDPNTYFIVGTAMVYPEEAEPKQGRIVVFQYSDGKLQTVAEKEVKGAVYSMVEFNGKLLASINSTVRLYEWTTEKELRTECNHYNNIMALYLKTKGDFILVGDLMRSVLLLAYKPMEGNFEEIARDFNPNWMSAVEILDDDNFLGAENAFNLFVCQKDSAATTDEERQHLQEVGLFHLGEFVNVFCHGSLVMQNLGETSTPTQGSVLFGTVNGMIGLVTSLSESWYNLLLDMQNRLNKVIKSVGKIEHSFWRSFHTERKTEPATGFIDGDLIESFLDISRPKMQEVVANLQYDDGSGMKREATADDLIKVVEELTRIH
T4 sequence (P30291 whole entry): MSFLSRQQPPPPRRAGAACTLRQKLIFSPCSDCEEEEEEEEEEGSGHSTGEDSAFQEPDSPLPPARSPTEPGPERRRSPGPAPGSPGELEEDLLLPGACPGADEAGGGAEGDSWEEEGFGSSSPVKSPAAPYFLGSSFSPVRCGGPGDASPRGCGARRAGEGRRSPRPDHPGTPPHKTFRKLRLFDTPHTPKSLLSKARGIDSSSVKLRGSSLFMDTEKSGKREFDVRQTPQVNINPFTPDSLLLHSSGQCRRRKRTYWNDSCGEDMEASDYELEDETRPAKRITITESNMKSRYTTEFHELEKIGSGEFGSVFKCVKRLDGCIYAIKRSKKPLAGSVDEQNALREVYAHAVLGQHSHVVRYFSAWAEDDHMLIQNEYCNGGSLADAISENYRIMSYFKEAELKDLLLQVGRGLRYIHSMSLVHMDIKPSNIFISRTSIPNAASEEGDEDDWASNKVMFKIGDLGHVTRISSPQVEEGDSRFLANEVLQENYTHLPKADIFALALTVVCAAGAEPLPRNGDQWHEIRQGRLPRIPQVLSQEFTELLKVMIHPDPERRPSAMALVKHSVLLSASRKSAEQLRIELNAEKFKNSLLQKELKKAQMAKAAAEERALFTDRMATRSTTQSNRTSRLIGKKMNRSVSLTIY
T4 sequence (Q96SW2 whole entry): as the sequence (Q96SW2 whole entry) above
T4 sequence (Q16531 whole entry partner): as the sequence (Q16531 whole entry partner) above
T5 sequence (P15170 whole entry): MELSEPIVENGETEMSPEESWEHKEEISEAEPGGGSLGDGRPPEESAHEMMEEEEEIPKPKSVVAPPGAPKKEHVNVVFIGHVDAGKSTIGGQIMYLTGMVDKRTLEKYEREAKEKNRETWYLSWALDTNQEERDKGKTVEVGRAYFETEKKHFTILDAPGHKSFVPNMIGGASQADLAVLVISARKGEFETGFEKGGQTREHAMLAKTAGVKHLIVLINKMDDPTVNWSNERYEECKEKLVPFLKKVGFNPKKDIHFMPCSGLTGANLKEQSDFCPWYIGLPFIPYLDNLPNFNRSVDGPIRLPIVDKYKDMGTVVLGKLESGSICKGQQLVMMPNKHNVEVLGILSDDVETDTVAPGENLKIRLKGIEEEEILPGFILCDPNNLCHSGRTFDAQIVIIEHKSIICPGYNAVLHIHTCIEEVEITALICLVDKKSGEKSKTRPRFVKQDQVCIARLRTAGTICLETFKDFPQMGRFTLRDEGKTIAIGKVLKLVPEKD
T5 sequence (Q96SW2 whole entry): as the sequence (Q96SW2 whole entry) above
T5 sequence (Q16531 whole entry partner): as the sequence (Q16531 whole entry partner) above
T6 sequence (P48729 whole entry): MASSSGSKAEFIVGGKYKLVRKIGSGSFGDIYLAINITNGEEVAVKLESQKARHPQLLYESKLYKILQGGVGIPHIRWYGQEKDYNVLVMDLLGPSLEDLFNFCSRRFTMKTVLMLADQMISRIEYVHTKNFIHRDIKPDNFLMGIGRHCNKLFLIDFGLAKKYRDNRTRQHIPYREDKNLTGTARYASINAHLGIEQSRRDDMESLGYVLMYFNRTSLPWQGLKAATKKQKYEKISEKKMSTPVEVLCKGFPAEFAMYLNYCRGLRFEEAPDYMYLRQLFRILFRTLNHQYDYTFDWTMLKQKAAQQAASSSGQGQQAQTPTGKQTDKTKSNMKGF
T6 sequence (Q96SW2 whole entry): as the sequence (Q96SW2 whole entry) above
T6 sequence (Q16531 whole entry partner): as the sequence (Q16531 whole entry partner) above
T1 sequence (Q9UKS7 whole entry): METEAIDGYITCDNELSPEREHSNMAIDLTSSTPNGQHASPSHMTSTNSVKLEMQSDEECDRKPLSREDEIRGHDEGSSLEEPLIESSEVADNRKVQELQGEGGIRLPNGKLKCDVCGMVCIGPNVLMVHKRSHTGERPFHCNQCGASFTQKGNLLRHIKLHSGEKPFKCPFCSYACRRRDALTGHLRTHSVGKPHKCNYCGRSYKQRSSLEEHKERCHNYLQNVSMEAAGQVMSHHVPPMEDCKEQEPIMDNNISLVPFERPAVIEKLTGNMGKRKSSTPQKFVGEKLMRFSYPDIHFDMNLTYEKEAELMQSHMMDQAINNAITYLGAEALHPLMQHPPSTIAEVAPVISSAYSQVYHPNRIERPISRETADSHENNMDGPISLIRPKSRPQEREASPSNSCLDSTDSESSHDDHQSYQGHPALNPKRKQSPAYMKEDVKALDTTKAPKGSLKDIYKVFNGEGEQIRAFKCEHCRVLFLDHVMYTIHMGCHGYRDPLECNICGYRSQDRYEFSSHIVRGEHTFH
T1 sequence (Q96SW2 whole entry): as the sequence (Q96SW2 whole entry) above
T1 sequence (Q16531 whole entry partner): as the sequence (Q16531 whole entry partner) above

Row | Compound | IKZF2 substrate protein remaining % [1] | IKZF1 substrate protein remaining % [2] | IKZF3 substrate protein remaining % [3] | WEE1 substrate protein remaining % [4] | GSPT1 substrate protein remaining % [5] | CK1α substrate protein remaining % [6]
1 | O=C1CCN(N2Cc3cc(CN4CCN(c5ncnc(Cl)c5Cl)CC4)ccc3C2=O)C(=O)N1 [GT-07028, 1-(5-((4-(5,6-dichloropyrimidin-4-yl)piperazin-1-yl)methyl)-1-oxoisoindolin-2-yl)dihydropyrimidine-2,4(1H,3H)-dione] | B (80%< substrate protein remaining % ≤100%) | B (80%< substrate protein remaining % ≤100%) | B (80%< substrate protein remaining % ≤100%) | A (0% ≤ substrate protein remaining % ≤80%) | A (0% ≤ substrate protein remaining % ≤80%) | B (80%< substrate protein remaining % ≤100%)
2 | O=C1CCN(N2Cc3cc(CN4CCN(c5cnnc(Cl)c5Cl)CC4)ccc3C2=O)C(=O)N1 [GT-07029, 1-(5-((4-(5,6-dichloropyridazin-4-yl)piperazin-1-yl)methyl)-1-oxoisoindolin-2-yl)dihydropyrimidine-2,4(1H,3H)-dione] | A (0% ≤ substrate protein remaining % ≤80%) | B (80%< substrate protein remaining % ≤100%) | B (80%< substrate protein remaining % ≤100%) | A (0% ≤ substrate protein remaining % ≤80%) | A (0% ≤ substrate protein remaining % ≤80%) | B (80%< substrate protein remaining % ≤100%)
3 | O=C1CCN(N2Cc3cc(CN4CCN(c5cc(Cl)nnc5Cl)CC4)ccc3C2=O)C(=O)N1 [GT-07030, 1-(5-((4-(3,6-dichloropyridazin-4-yl)piperazin-1-yl)methyl)-1-oxoisoindolin-2-yl)dihydropyrimidine-2,4(1H,3H)-dione] | A (0% ≤ substrate protein remaining % ≤80%) | B (80%< substrate protein remaining % ≤100%) | B (80%< substrate protein remaining % ≤100%) | B (80%< substrate protein remaining % ≤100%) | B (80%< substrate protein remaining % ≤100%) | B (80%< substrate protein remaining % ≤100%)
4 | O=C1CCN(N2Cc3cc(CN4CCN(c5ncncn5)CC4)ccc3C2=O)C(=O)N1 [GT-07031, 1-(5-((4-(1,3,5-triazin-2-yl)piperazin-1-yl)methyl)-1-oxoisoindolin-2-yl)dihydropyrimidine-2,4(1H,3H)-dione] | B (80%< substrate protein remaining % ≤100%) | A (0% ≤ substrate protein remaining % ≤80%) | A (0% ≤ substrate protein remaining % ≤80%) | B (80%< substrate protein remaining % ≤100%) | A (0% ≤ substrate protein remaining % ≤80%) | A (0% ≤ substrate protein remaining % ≤80%)
5 | O=C1CCN(N2Cc3cc(CN4CCN(c5c(Cl)cncc5Cl)CC4)ccc3C2=O)C(=O)N1 [GT-07032, 1-(5-((4-(3,5-dichloropyridin-4-yl)piperazin-1-yl)methyl)-1-oxoisoindolin-2-yl)dihydropyrimidine-2,4(1H,3H)-dione] | B (80%< substrate protein remaining % ≤100%) | B (80%< substrate protein remaining % ≤100%) | B (80%< substrate protein remaining % ≤100%) | B (80%< substrate protein remaining % ≤100%) | A (0% ≤ substrate protein remaining % ≤80%) | B (80%< substrate protein remaining % ≤100%)
6 | Cc1cc(N2CCN(Cc3ccc4c(c3)CN(N3CCC(=O)NC3=O)C4=O)CC2)cc(C)n1 [GT-07033, 1-(5-((4-(2,6-dimethylpyridin-4-yl)piperazin-1-yl)methyl)-1-oxoisoindolin-2-yl)dihydropyrimidine-2,4(1H,3H)-dione] | B (80%< substrate protein remaining % ≤100%) | B (80%< substrate protein remaining % ≤100%) | B (80%< substrate protein remaining % ≤100%) | B (80%< substrate protein remaining % ≤100%) | A (0% ≤ substrate protein remaining % ≤80%) | B (80%< substrate protein remaining % ≤100%)
7 | O=C1CCN(N2C(=O)c3ccc(CN4CCN(c5ncnc(Cl)c5Cl)CC4)cc3C2=O)C(=O)N1 [GT-07034, 5-((4-(5,6-dichloropyrimidin-4-yl)piperazin-1-yl)methyl)-2-(2,4-dioxotetrahydropyrimidin-1(2H)-yl)isoindoline-1,3-dione] | A (0% ≤ substrate protein remaining % ≤80%) | A (0% ≤ substrate protein remaining % ≤80%) | A (0% ≤ substrate protein remaining % ≤80%) | A (0% ≤ substrate protein remaining % ≤80%) | A (0% ≤ substrate protein remaining % ≤80%) | A (0% ≤ substrate protein remaining % ≤80%)
8 | O=C1CCN(N2C(=O)c3ccc(CN4CCN(c5cnnc(Cl)c5Cl)CC4)cc3C2=O)C(=O)N1 [GT-07035, 5-((4-(5,6-dichloropyridazin-4-yl)piperazin-1-yl)methyl)-2-(2,4-dioxotetrahydropyrimidin-1(2H)-yl)isoindoline-1,3-dione] | B (80%< substrate protein remaining % ≤100%) | B (80%< substrate protein remaining % ≤100%) | A (0% ≤ substrate protein remaining % ≤80%) | B (80%< substrate protein remaining % ≤100%) | A (0% ≤ substrate protein remaining % ≤80%) | A (0% ≤ substrate protein remaining % ≤80%)
9 | O=C1CCN(N2C(=O)c3ccc(CN4CCN(c5cc(Cl)nnc5Cl)CC4)cc3C2=O)C(=O)N1 [GT-07036, 5-((4-(3,6-dichloropyridazin-4-yl)piperazin-1-yl)methyl)-2-(2,4-dioxotetrahydropyrimidin-1(2H)-yl)isoindoline-1,3-dione] | B (80%< substrate protein remaining % ≤100%) | B (80%< substrate protein remaining % ≤100%) | B (80%< substrate protein remaining % ≤100%) | B (80%< substrate protein remaining % ≤100%) | A (0% ≤ substrate protein remaining % ≤80%) | B (80%< substrate protein remaining % ≤100%)
10 | O=C1CCN(N2C(=O)c3ccc(CN4CCN(c5ncncn5)CC4)cc3C2=O)C(=O)N1 [GT-07037, 5-((4-(1,3,5-triazin-2-yl)piperazin-1-yl)methyl)-2-(2,4-dioxotetrahydropyrimidin-1(2H)-yl)isoindoline-1,3-dione] | B (80%< substrate protein remaining % ≤100%) | B (80%< substrate protein remaining % ≤100%) | B (80%< substrate protein remaining % ≤100%) | B (80%< substrate protein remaining % ≤100%) | A (0% ≤ substrate protein remaining % ≤80%) | B (80%< substrate protein remaining % ≤100%)
11 | O=C1CCN(N2C(=O)c3ccc(CN4CCN(c5c(Cl)cncc5Cl)CC4)cc3C2=O)C(=O)N1 [GT-07038, 5-((4-(3,5-dichloropyridin-4-yl)piperazin-1-yl)methyl)-2-(2,4-dioxotetrahydropyrimidin-1(2H)-yl)isoindoline-1,3-dione] | A (0% ≤ substrate protein remaining % ≤80%) | A (0% ≤ substrate protein remaining % ≤80%) | A (0% ≤ substrate protein remaining % ≤80%) | A (0% ≤ substrate protein remaining % ≤80%) | A (0% ≤ substrate protein remaining % ≤80%) | A (0% ≤ substrate protein remaining % ≤80%)
